In article PMC11357638 (Molecules, 2024):
Substitutions are numbered along the chain they refer to.

What was measured:
hTRPV3 L669A mutant = molecular target: T1, hTRPV3 L669A mutant (Homo sapiens, UniProt Q8NET8, L669A); test: cell-based
T1 sequence (Q8NET8 1-790 L669A): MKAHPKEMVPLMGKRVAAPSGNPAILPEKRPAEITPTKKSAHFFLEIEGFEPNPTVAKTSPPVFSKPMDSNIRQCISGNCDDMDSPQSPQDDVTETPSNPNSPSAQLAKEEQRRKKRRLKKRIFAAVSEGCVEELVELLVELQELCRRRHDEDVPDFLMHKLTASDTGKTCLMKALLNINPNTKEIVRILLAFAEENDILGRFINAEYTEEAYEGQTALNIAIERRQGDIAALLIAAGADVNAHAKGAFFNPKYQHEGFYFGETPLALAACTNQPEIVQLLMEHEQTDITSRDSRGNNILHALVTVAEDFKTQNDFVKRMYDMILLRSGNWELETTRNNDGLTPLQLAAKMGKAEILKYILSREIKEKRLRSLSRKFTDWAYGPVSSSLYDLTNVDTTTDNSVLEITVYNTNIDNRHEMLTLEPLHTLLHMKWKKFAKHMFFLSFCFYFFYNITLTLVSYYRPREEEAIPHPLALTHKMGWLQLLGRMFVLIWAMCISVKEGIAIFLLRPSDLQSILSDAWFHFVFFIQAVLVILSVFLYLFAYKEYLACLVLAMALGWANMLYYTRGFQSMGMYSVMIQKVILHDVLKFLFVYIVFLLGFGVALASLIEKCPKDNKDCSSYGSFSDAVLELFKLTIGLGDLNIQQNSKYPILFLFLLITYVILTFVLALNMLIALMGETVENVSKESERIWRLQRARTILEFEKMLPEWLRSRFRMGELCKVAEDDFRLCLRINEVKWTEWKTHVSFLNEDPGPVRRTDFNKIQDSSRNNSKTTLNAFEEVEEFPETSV

hTRPV3 I637A mutant = molecular target: T2, hTRPV3 I637A mutant (Homo sapiens, UniProt Q8NET8, I637A); test: Whole-cell patch-clamp of hTRPV3 I637A mutant in HEK293T cells; type: cell-based
T2 construct: expressed in transfected cells; host or cells: HEK293T
T2 sequence (Q8NET8 1-790 I637A): T1 sequence (Q8NET8 1-790 L669A) with I637A, A669L

IC50 (hTRPV3 L669A mutant): 180 ± 59.9 µM
IC50 (hTRPV3 I637A mutant; I637A hTRPV3, 50 μM 2-APB, +80 mV, Hill fit, read-out: IC50, inhibition of I637A mutant outward currents): 306 ± 61.1 µM
channel current inhibition by 500 μM CA compared to WT (hTRPV3 I637A mutant; I637A mutant, 50 μM 2-APB, 500 μM CA): significantly diminished
Compound: O=C(O)/C=C/c1ccc(O)c(O)c1 [CA, caffeic acid]
